According to patent US11771086B2, “Pest control composition including novel iminopyridine derivative” (priority 2012, dated 2023):
Like-named read-outs stand apart in the source and are kept apart here.

What was measured:
[1] = system: Plutella xylostella; experiment: whole plant or invertebrate; format: in vivo
Procedure: (§1) After an air drying process, second instar larvae were released thereto. […] The test was performed in duplicate.
(§2) Method for Judging Synergistic Effects

[2] = system: Haemaphysalis longicornis; experiment: whole plant or invertebrate; format: in vivo; conditions: for mortality at 0.00038 mg: read-out: Mortality of single agent against Haemaphysalis longicornis, single agent 0.38 μg
Procedure: A capsule with a diameter of 2 cm and a height of 2 cm was attached to the dorsal surface of a mouse. A compound of Formula (I), ivermectin, moxidectin, permethrin, amitraz, fipronil, spinetram and the mixture of the compound of Formula (I) and each insecticide were dissolved in ethanol at the concentrations given in […], and each of these was dripped onto the surface of a mouse body within a capsule. After thorough drying, eight Haemaphysalis longicornis nymphs were released and the top of the capsule was sealed with a lid. The mouse was kept in a cage at 25° C. using a 12-hour light period and a 12-hour dark period. Five days after the release, the capsule was removed and the number of surviving and dead nymphs and the number of engorged individuals were counted and the insect mortality and agonal rate was calculated by the following equation. Insect mortality and agonal rate (%)={number of dead and agonal insects/(number of survived insects+number of dead and agonal insects)}×100

[3] = system: Laodelphax striatella; experiment: whole plant or invertebrate; conditions: for Theoretical value by Colby's equation: Laodelphax striatella soil irrigation; for mortality at 0.005 mg/seedling: read-out: Mortality of single agent against Laodelphax striatella, single agent 0.005 mg/Seedling; for mortality at 0.05 mg/seedling: read-out: Mortality of single agent against Laodelphax striatella, single agent 0.05 mg/Seedling
Procedure: After the rice seedling was left to stand for 3 days, second instar larvae were released thereto. Thereafter, the larvae were left to stand in a thermostatic chamber (16 hours of light period-8 hours of dark period) at 25° C. […] The test was performed in duplicate. Mortality of larvae (%)={number of dead larvae/(number of survived larvae+number of dead larvae)}×100
B: 100−(mortality of larvae or adults when treated only with each of imidacloprid, fipronil, chlorantraniliprole, spinosad, clothianidin, dinotefuran, sulfoxaflor, pymetrozine, thiamethoxam, flupyradifurone and cycloxaprid))
as §2
When the mortality against Laodelphax striatella in the case of a mixture with another agent exceeded the theoretical value by the Colby's equation, a synergistic effect was judged to be present.

[4] = system: Spodoptera litura; experiment: whole plant or invertebrate; format: in vivo
Procedure: After an air drying process, third instar larvae were released thereto. […] The test was performed in duplicate.
as §2

[5] = system: Chilo suppressalis; format: in vivo; conditions: soil irrigation, six days after release
Procedure: After standing for 3 days, second instar larvae were released thereto. […] The test was performed in duplicate.
as §2

[6] = system: Laodelphax striatella; experiment: whole plant or invertebrate; format: in vivo
Procedure: as §1, §2

[7] = system: Plutella xylostella; experiment: Reference Test Example 1 Pest control test of Plutella xylostella (foliar treatment, single agent); format: in vivo; design: Plutella xylostella (Reference Test Example 1), mortality of larvae: concentration or dose not given beside the values; conditions: foliar treatment, single agent
Source text: After an air drying process, second instar larvae were released thereto. […] Test in duplicate.

[8] = system: Aphis gossypii; experiment: Reference Test Example 3 Pest control test of Aphis gossypii (foliar treatment, single agent); format: in vivo; design: Aphis gossypii (Reference Test Example 3), mortality of larvae: concentration or dose not given beside the values; conditions: foliar treatment, single agent
[9] = system: Laodelphax striatella; experiment: Reference Test Example 18 Pest control test of Laodelphax striatella (wheat seedling root treatment); format: in vivo; conditions: wheat seedling roots treated; four days after release; 20 μg/seedling
Procedure: The drug was absorbed from the roots for 72 hours, and then ten second instar larvae of Laodelphax striatella were each released thereto. […] The test was performed in duplicate.

[10] = Haemaphysalis longicornis, topical, 120 h, capsule on mouse, five days, mortality and agonal rate
[11] = Laodelphax striatellus, soil, 72 h, soil irrigation
[12] = Laodelphax striatellus, foliar, 72 h, read-out: Mortality of single agent against Laodelphax striatella

O=c1c(-c2ccccc2)c([O-])[n+](Cc2ccc(Cl)nc2)c2ccccn12 [1-((6-chloropyridin-3-yl)methyl)-4-oxo-3-phenyl-4H-pyrido[1,2-a]pyrimidin-1-ium-2-olate]
mortality at 1 ppm ([1]; Plutella xylostella, foliar, 72 h, read-out: Mortality of single agent against Plutella xylostella, single agent 1 ppm, cabbage leaf disk spray, three days): 30%
Theoretical value by Colby's equation ([1]; Plutella xylostella, single agent 1 ppm (other component 0)): 30%

spinosad
Theoretical value by Colby's equation ([2]; Haemaphysalis longicornis, single agent 1.9 μg (other component 0)): 2.5%
Mortality of single agent against Haemaphysalis longicornis ([2]; single agent 1.9 μg, capsule on mouse, five days, mortality and agonal rate): 2.5%

N#Cc1nn(-c2c(Cl)cc(C(F)(F)F)cc2Cl)c(N)c1[S+]([O-])C(F)(F)F (centres unmarked) [fipronil]
mortality at 0.00038 mg [2, 10]: 78%

CN1COCN(Cc2cnc(Cl)s2)/C1=N\[N+](=O)[O-] [Thiamethoxam]
mortality at 0.01 mg/seedling ([3]; Laodelphax striatellus, soil, 72 h, read-out: Mortality of single agent against Laodelphax striatella, single agent 0.01 mg/Seedling, soil irrigation): 23%

CO/N=C1\C[C@]2(C[C@@H]3C[C@@H](C/C=C(\C)C[C@@H](C)/C=C/C=C4\CO[C@@H]5[C@H](O)C(C)=C[C@@H](C(=O)O3)[C@]45O)O2)O[C@H](/C(C)=C/C(C)C)[C@H]1C [Moxidectin]
mortality at 9 ng ([2]; Haemaphysalis longicornis, topical, 120 h, read-out: Mortality of single agent against Haemaphysalis longicornis, single agent 0.009 μg, capsule on mouse, five days, mortality and agonal rate): 6%

spinetoram
Theoretical value by Colby's equation ([2]; Haemaphysalis longicornis, single agent 0.38 μg (other component 0)): 6%
Mortality of single agent against Haemaphysalis longicornis ([2]; single agent 0.38 μg, capsule on mouse, five days, mortality and agonal rate): 6%

O=[N+]([O-])C1=C2N(Cc3ccc(Cl)nc3)CCN2[C@H]2CC[C@@H]1O2 [Cycloxaprid]
Theoretical value by Colby's equation ([3]; single agent 0.005 mg/Seedling (other component 0)): 0%
Mortality of single agent against Laodelphax striatella ([3]; single agent 0.005 mg/Seedling, soil irrigation): 0%

CC(COc1ccc(Oc2ccccc2)cc1)Oc1ccccn1 (centres unmarked) [pyriproxyfen]
mortality at 47.5 ng ([2]; Haemaphysalis longicornis, topical, 120 h, read-out: Mortality of single agent against Haemaphysalis longicornis, single agent 0.0475 μg, capsule on mouse, five days, mortality and agonal rate): 2%

Emamectin benzoate
Theoretical value by Colby's equation ([4]; Spodoptera litura, single agent 0.02 ppm (other component 0)): 0%
Mortality of single agent against Spodoptera litura ([4]; single agent 0.02 ppm, cabbage leaf disk spray, three days): 0%

CC[C@H](C)[C@H]1O[C@]2(CC[C@@H]1C)C[C@@H]1C[C@@H](C/C=C(\C)[C@@H](O[C@H]3C[C@H](OC)[C@@H](O[C@H]4C[C@H](OC)[C@@H](O)[C@H](C)O4)[C@H](C)O3)[C@@H](C)/C=C/C=C3\CO[C@@H]4[C@H](O)C(C)=C[C@@H](C(=O)O1)[C@]34O)O2 [Ivermectin]
Mortality of single agent against Haemaphysalis longicornis ([2]; single agent 0.009 μg, capsule on mouse, five days, mortality and agonal rate): 3%

CN/C(=N\[N+](=O)[O-])NCc1cnc(Cl)s1 [Clothianidin]
mortality at 0.005 mg/seedling [3, 11]: 23%

CNC(=O)c1cc(C#N)cc(C)c1NC(=O)c1cc(Br)nn1-c1ncccc1Cl [Cyantraniliprole]
Mortality of single agent against Chilo suppressalis ([5]; single agent 0.005 mg/seedling): 83%

CC1(C)C(C=C(Cl)Cl)C1C(=O)OCc1cccc(Oc2ccccc2)c1 (centres unmarked) [Permethrin]
mortality at 0.0095 mg ([2]; Haemaphysalis longicornis, topical, 120 h, read-out: Mortality of single agent against Haemaphysalis longicornis, single agent 9.5 μg, capsule on mouse, five days, mortality and agonal rate): 71%

CC(c1ccc(C(F)(F)F)nc1)S(C)(=O)=NC#N (centres unmarked) [Sulfoxaflor]
mortality at 0.005 mg/seedling [3, 11]: 1%

CNC(=O)c1cc(Cl)cc(C)c1NC(=O)c1cc(Br)nn1-c1ncccc1Cl [Chlorantraniliprole]
mortality at 0.05 mg/seedling [3, 11]: 9%
Theoretical value by Colby's equation ([1]; 0.002 ppm): 60%
mortality at 0.002 ppm ([1]; Plutella xylostella, foliar, 72 h, read-out: Mortality of single agent against Plutella xylostella, single agent 0.002 ppm, cabbage leaf disk spray, three days): 60%
Theoretical value by Colby's equation ([4]; 0.02 ppm): 20%
mortality at 0.02 ppm ([4]; Spodoptera litura, foliar, 72 h, read-out: Mortality of single agent against Spodoptera litura, single agent 0.02 ppm, cabbage leaf disk spray, three days): 20%
Mortality of single agent against Chilo suppressalis ([5]; single agent 0.0005 mg/seedling): 60%

CC1=NNC(=O)N(/N=C/c2cccnc2)C1 [Pymetrozine]
mortality at 0.05 mg/seedling [3, 11]: 15%

CCc1nc2cc(C)c(Oc3ccc(OC(F)(F)F)cc3)cc2c(OC(=O)OC)c1C [Flometoquin]
Theoretical value by Colby's equation ([1]; Plutella xylostella, single agent 0.313 ppm (other component 0)): 0%
Mortality of single agent against Plutella xylostella ([1]; single agent 0.313 ppm, cabbage leaf disk spray, three days): 0%
Theoretical value by Colby's equation ([4]; Spodoptera litura, single agent 5 ppm (other component 0)): 10%
Mortality of single agent against Spodoptera litura ([4]; single agent 5 ppm, cabbage leaf disk spray, three days): 10%

Cc1ccc(/N=C/N(C)/C=N/c2ccc(C)cc2C)c(C)c1 [Amitraz]
mortality at 0.00038 mg [2, 10]: 41%

CCOc1ccc([Si](C)(C)CCCc2ccc(F)c(Oc3ccccc3)c2)cc1 [Silafluofen]
Mortality of single agent ([6]; Laodelphax striatella foliar, single agent 5 ppm (other component 0)): 55%
mortality at 5 ppm [6, 12]: 55%

O=C(N=c1ccc(F)cn1Cc1ccc(Cl)nc1)C(F)(F)F [Compound P-216]
Plutella xylostella (Reference Test Example 1), mortality of larvae [7]: 100%
Aphis gossypii (Reference Test Example 3), mortality of larvae [8]: 95%
Laodelphax striatella (Reference Test Example 18), mortality of larvae [9]: 100%

O=C(N=c1ccccn1Cc1ccc(Cl)nc1)C(F)(F)Cl [Compound P-239]
Plutella xylostella (Reference Test Example 1), mortality of larvae [7]: 100%
Aphis gossypii (Reference Test Example 3), mortality of larvae [8]: 100%
Laodelphax striatella (Reference Test Example 18), mortality of larvae [9]: 100%

Fc1ccc(Cn2ccccc2=NC(=S)C(F)(F)F)cn1 [Compound 3-20]
Plutella xylostella (Reference Test Example 1), mortality of larvae [7]: 55%
Aphis gossypii (Reference Test Example 3), mortality of larvae [8]: 100%
Laodelphax striatella (Reference Test Example 18), mortality of larvae [9]: 80%

CCOc1ccc(C(C)(C)COCc2cccc(Oc3ccccc3)c2)cc1 [Etofenprox]
mortality at 10 ppm [6, 12]: 30%
Theoretical value by Colby's equation ([6]; foliar, 10 ppm): 30%

O=C1C=C(N(Cc2ccc(Cl)nc2)CC(F)F)CO1 [Flupyradifurone]
Theoretical value by Colby's equation ([3]; single agent 0.01 mg/Seedling (other component 0)): 5%
Mortality of single agent against Laodelphax striatella ([3]; single agent 0.01 mg/Seedling, soil irrigation): 5%

O=C(N=c1ccccn1Cc1ccc(Cl)nc1)C(F)(F)C(F)(F)F [Compound P-242]
Plutella xylostella (Reference Test Example 1), mortality of larvae [7]: 100%
Aphis gossypii (Reference Test Example 3), mortality of larvae [8]: 100%
Laodelphax striatella (Reference Test Example 18), mortality of larvae [9]: 100%

O=C(N=c1ccccn1Cc1ccc(Cl)nc1)C(F)(F)F [Compound P-212]
Plutella xylostella (Reference Test Example 1), mortality of larvae [7]: 100%
Aphis gossypii (Reference Test Example 3), mortality of larvae [8]: 100%
Laodelphax striatella (Reference Test Example 18), mortality of larvae [9]: 100%

CN/C(=N/CC1CCOC1)N[N+](=O)[O-] (centres unmarked) [dinotefuran]
mortality at 0.0019 mg ([2]; Haemaphysalis longicornis, topical, 120 h, read-out: Mortality of single agent against Haemaphysalis longicornis, single agent 1.9 μg, capsule on mouse, five days, mortality and agonal rate): 0%

O=C(N=c1ccccn1Cc1ccc(Br)nc1)C(F)(F)C(F)(F)F [Compound 4-5]
Plutella xylostella (Reference Test Example 1), mortality of larvae [7]: 100%
Aphis gossypii (Reference Test Example 3), mortality of larvae [8]: 100%
Laodelphax striatella (Reference Test Example 18), mortality of larvae [9]: 100%
